ChEMBL document CHEMBL1157662, “Antimalarial and antileishmanial activities of histone deacetylase inhibitors with triazole-linked cap group” (Bioorg Med Chem, 2010)
Values after ≈ are worked out from the molar mass of the structure shown. Active and inactive are the calls of the source. The calls are words filed in the database; no cut-off is given here.

How the values were obtained:
Leishmania donovani [1] = assay: Antileishmanial activity against Leishmania donovani promastigotes after 72 hrs by alamar blue assay; format: functional, organism-based
Plasmodium falciparum [2] = assay: microbe, parasite or virus in culture; conditions: D6, Vero, 72 h
Description: Antimalarial activity against chloroquine-sensitive Plasmodium falciparum D6 infected in African green monkey (Cercopithecus aethiops) Vero cells assessed as parasite LDH activity after 72 hrs by Malstat reagent method

[3] = Selectivity index, ratio of IC50 for african green monkey (Cercopithecus aethiops) Vero cells to IC50 for chloroquine-sensitive Plasmodium falciparum D6
[4] = Selectivity index, ratio of IC50 for african green monkey (Cercopithecus aethiops) Vero cells to IC50 for chloroquine-resistant Plasmodium falciparum W2
Vero = assay: Cytotoxicity against african green monkey Vero cells after 1 to 2 days by neutral red assay; format: ADME, cell-based, Chlorocebus sabaeus
Plasmodium falciparum [5] = assay: microbe, parasite or virus in culture; format: functional, organism-based, W2, Vero; conditions: Plasmodium falciparum, W2, Vero, 72 h; read-out: IC50
Description: Antimalarial activity against chloroquine-resistant Plasmodium falciparum W2 infected in African green monkey (Cercopithecus aethiops) Vero cells assessed as parasite LDH activity after 72 hrs by Malstat reagent method

Histone deacetylase = assay: Inhibition of HDAC in human HeLa cell nuclear extracts after 15 mins by fluorescence assay; format: cell-based
Leishmania donovani [6] = system: Leishmania donovani
Leishmania donovani [7] = assay: Ratio of suberoylanilide hydroxamic acid IC50 to compound IC50 for Leishmania donovani promastigotes
Leishmania donovani [8] = assay: Ratio of suberoylanilide hydroxamic acid IC50 to compound IC50 for Leishmania donovani promastigotes; format: functional
[9] = Leishmania donovani, 72 h, read-out: IC50
[10] = Chlorocebus sabaeus, Vero, read-out: IC50

SMILES	IC90 (Leishmania donovani [1]; Leishmania donovani, 72 h) [µg/mL]	IC50 (Leishmania donovani [1]; [9]) [µg/mL]	IC50 (Plasmodium falciparum [2]) [µg/mL]	selectivity ratio [3]	selectivity ratio [4]	IC50 (Vero; [10]) [µg/mL]	IC50 (Plasmodium falciparum [5]) [µg/mL]	IC50 (Histone deacetylase) [nM]	IC50 (Vero; vero)	IC50 (Leishmania donovani [1])	IC90 (Leishmania donovani [6])	IC50 ratio (Leishmania donovani [7])	Ratio (Leishmania donovani [8])
O=C(CCCCCn1cc(-c2ccccc2-c2ccccc2)nn1)NO	38 (≈ 108 µM)	13 (≈ 37.1 µM)	2.1 (≈ 5.99 µM)	1.3	1	2.7 (≈ 7.7 µM)	2.6 (≈ 7.42 µM)						
O=C(CCCCCCCn1cc(-c2cccc(-c3ccccc3)c2)nn1)NO	40 (≈ 106 µM)	20.2 (≈ 53.5 µM)	0.84 (≈ 2.22 µM)	> 5.6	> 7.3		0.65 (≈ 1.72 µM)	108.9	Non-toxic				
O=C(CCCCCn1cc(-c2ccccc2)nn1)NO	> 40	17.5 (≈ 63.8 µM)	0.088 (≈ 0.321 µM)	44.9	30.4	3.95 (≈ 14.4 µM)	0.13 (≈ 0.474 µM)						
O=C(CCCCn1cc(-c2ccccc2)nn1)NO			0.125 (≈ 0.48 µM)	> 38.1	> 39.6		0.12 (≈ 0.461 µM)		Non-toxic	Not Active	inactive		
Cc1cccc(-c2cn(CCCCCC(=O)NO)nn2)c1	> 40	17 (≈ 59 µM)	0.0795 (≈ 0.276 µM)	34	39.7	2.7 (≈ 9.36 µM)	0.068 (≈ 0.236 µM)						
O=C(CCCCCCn1cc(-c2cccc(-c3ccccc3)c2)nn1)NO	> 40	20.5 (≈ 56.2 µM)	0.025 (≈ 0.0686 µM)	> 190	> 190		0.025 (≈ 0.0686 µM)		Non-toxic				
C[C@@H]1[C@H](O)[C@@H](C)/C=C/C=C/C=C/C=C/C=C/C=C/C=C/[C@H](O[C@@H]2O[C@H](C)[C@@H](O)[C@H](N)[C@@H]2O)C[C@@H]2O[C@](O)(C[C@@H](O)C[C@@H](O)[C@H](O)CC[C@@H](O)C[C@@H](O)CC(=O)O[C@H]1C)C[C@H](O)[C@H]2C(=O)O [AMPHOTERICIN B]	0.31 (≈ 0.335 µM)	0.14 (≈ 0.152 µM)											
COc1ccccc1-c1cn(CCCCCC(=O)NO)nn1	> 40	18.8 (≈ 61.6 µM)	0.15 (≈ 0.493 µM)	15.3	23.6	2.3 (≈ 7.56 µM)	0.0975 (≈ 0.32 µM)						
CN(C)c1ccc(-c2cn(CCCCCCCCC(=O)NO)nn2)cc1	> 40	20.8 (≈ 57.7 µM)	1.8 (≈ 5.01 µM)	> 2.6	> 2.9		1.65 (≈ 4.59 µM)	596.6	Non-toxic				
O=C(CCCCCn1cc(-c2ccc(-c3ccncc3)cc2)nn1)NO	> 40	28 (≈ 79.7 µM)	0.0455 (≈ 0.129 µM)	> 105	> 100		0.0475 (≈ 0.135 µM)		Non-toxic				
Cc1ccc(-c2cn(CCCCCC(=O)NO)nn2)cc1	> 40	21.5 (≈ 74.6 µM)	0.13 (≈ 0.451 µM)	29.6	27.5	3.85 (≈ 13.4 µM)	0.14 (≈ 0.486 µM)						
O=C(CCCCCCCCn1cc(-c2cccc(-c3ccccc3)c2)nn1)NO	40 (≈ 102 µM)	20 (≈ 51 µM)	3.35 (≈ 8.53 µM)	> 1.4	> 1.5		3.2 (≈ 8.15 µM)	147.7	Non-toxic				
O=C(CCCCCCn1cc(-c2cccnc2)nn1)NO	40 (≈ 138 µM)	15.5 (≈ 53.6 µM)	0.0755 (≈ 0.261 µM)	50.1	46.7	3.78 (≈ 13.1 µM)	0.081 (≈ 0.28 µM)	365.8					
O=C(CCCCCCn1cc(-c2ccc(-c3ccncc3)cc2)nn1)NO			1.15 (≈ 3.15 µM)	> 4.1	> 3.8		1.25 (≈ 3.42 µM)		Non-toxic	Not Active	inactive		
O=C(CCCCCn1cc(-c2cccnc2)nn1)NO	> 40	11.4 (≈ 41.6 µM)	0.175 (≈ 0.636 µM)	> 27.2	> 23.2		0.205 (≈ 0.745 µM)		Non-toxic				
COc1ccc2cc(-c3cn(CCCCCCCC(=O)NO)nn3)ccc2c1			0.112 (≈ 0.293 µM)	5.8	3.9	0.65 (≈ 1.7 µM)	0.165 (≈ 0.431 µM)	226.1		Not Active	inactive		
O=C(CCCCCn1cc(-c2cccs2)nn1)NO	> 40	11.5 (≈ 41 µM)	0.046 (≈ 0.164 µM)	> 103	> 130		0.0365 (≈ 0.13 µM)		Non-toxic			2	2
O=C(CCCn1cc(-c2ccccc2)nn1)NO			2.85 (≈ 11.6 µM)	> 1.7	> 1.4		3.5 (≈ 14.2 µM)		Non-toxic	Not Active	inactive		
CN(C)c1ccc(-c2cn(CCCCCCCC(=O)NO)nn2)cc1	> 40	24 (≈ 69.5 µM)	0.175 (≈ 0.507 µM)	3.8	3.6	0.97 (≈ 2.81 µM)	0.185 (≈ 0.536 µM)	15.9					

SMILES	IC90 (Leishmania donovani [1]; Leishmania donovani, 72 h) [µg/mL]	IC50 (Leishmania donovani [1]; [9]) [µg/mL]	IC50 (Plasmodium falciparum [2]) [µg/mL]	selectivity ratio [3]	selectivity ratio [4]	IC50 (Vero; [10]) [µg/mL]	IC50 (Plasmodium falciparum [5]) [µg/mL]	IC50 (Histone deacetylase) [nM]	IC50 (Vero; vero)	IC50 (Leishmania donovani [1])	IC90 (Leishmania donovani [6])	IC50 ratio (Leishmania donovani [7])	Ratio (Leishmania donovani [8])
O=C(CCCCCCC(=O)Nc1ccccc1)NO [VORINOSTAT]	57.9 (≈ 219 µM)												
O=C(CCCCCCCn1cc(-c2ccc(-c3ccncc3)cc2)nn1)NO			0.0885 (≈ 0.233 µM)	43.5	30.2	3.85 (≈ 10.1 µM)	0.128 (≈ 0.336 µM)	212.9		Not Active	inactive		
O=C(CCCCCCCCn1cc(-c2ccccc2)nn1)NO	> 40	18.5 (≈ 58.5 µM)	2.65 (≈ 8.38 µM)	1.9	1.2	3.35 (≈ 10.6 µM)	2.75 (≈ 8.69 µM)	55.4					
O=C(CCCCCCCn1cc(-c2cccnc2)nn1)NO	> 40	19.8 (≈ 65.1 µM)	1.49 (≈ 4.93 µM)	> 3.2	> 2.8		1.69 (≈ 5.56 µM)	425.8	Non-toxic				
N=C(N)c1ccc(OCCCCCOc2ccc(C(=N)N)cc2)cc1 [PENTAMIDINE]	1.8 (≈ 5.29 µM)												
O=C(CCCCCCn1cc(-c2ccccc2)nn1)NO	40 (≈ 139 µM)	4.55 (≈ 15.8 µM)	0.038 (≈ 0.132 µM)	11.3	17.6	0.43 (≈ 1.49 µM)	0.0245 (≈ 0.085 µM)					2	2
O=C(CCCCCn1cc(-c2ccccn2)nn1)NO	> 40	20.5 (≈ 74.5 µM)	0.985 (≈ 3.58 µM)	2.9	4.6	2.9 (≈ 10.5 µM)	0.625 (≈ 2.27 µM)						
O=C(CCCCCn1cc(-c2ccncc2)nn1)NO	> 40	17.8 (≈ 64.5 µM)	0.195 (≈ 0.708 µM)	> 24.4	> 35.9		0.133 (≈ 0.481 µM)		Non-toxic				
Cc1ccccc1-c1cn(CCCCCC(=O)NO)nn1	> 40	23 (≈ 79.8 µM)	1.25 (≈ 4.33 µM)	2.6	1.7	3.3 (≈ 11.4 µM)	1.95 (≈ 6.76 µM)						
Cc1ccccc1-c1cn(CCCCCCC(=O)NO)nn1	40 (≈ 132 µM)	26 (≈ 86 µM)	0.12 (≈ 0.397 µM)	5.9	5.1	0.71 (≈ 2.35 µM)	0.14 (≈ 0.463 µM)	2.8					
O=C(CCCCCCCn1cc(-c2ccccc2)nn1)NO	> 40	17.8 (≈ 58.7 µM)	0.645 (≈ 2.13 µM)	> 7.4	> 6.8		0.695 (≈ 2.3 µM)	363.6	Non-toxic				
O=C(CCCCCCn1cc(-c2ccccn2)nn1)NO	40 (≈ 138 µM)	5.75 (≈ 19.9 µM)	0.069 (≈ 0.238 µM)	13.8	23.8	0.95 (≈ 3.28 µM)	0.04 (≈ 0.138 µM)					2	2
COc1cccc(OC)c1-c1cn(CCCCCC(=O)NO)nn1	> 40	40 (≈ 120 µM)	2 (≈ 5.98 µM)	> 2.4	> 1.8		2.6 (≈ 7.78 µM)		Non-toxic				
O=C(CCCCCn1cc(-c2cccc(-c3ccccc3)c2)nn1)NO	32.5 (≈ 92.7 µM)	11.2 (≈ 32.1 µM)	0.0375 (≈ 0.107 µM)	> 127	> 183		0.026 (≈ 0.0742 µM)		Non-toxic			2	2
COc1ccc(-c2cn(CCCCCC(=O)NO)nn2)cc1	> 40	18.5 (≈ 60.8 µM)	0.13 (≈ 0.427 µM)	18.1	26.1	2.35 (≈ 7.72 µM)	0.09 (≈ 0.296 µM)						
CN(C)c1ccc(-c2cn(CCCCCC(=O)NO)nn2)cc1	> 40	15.5 (≈ 48.8 µM)	0.068 (≈ 0.214 µM)	50	88.3	3.4 (≈ 10.7 µM)	0.0385 (≈ 0.121 µM)						
C[C@@H]1CC[C@H]2[C@@H](C)C(=O)O[C@@H]3O[C@@]4(C)CC[C@@H]1[C@]32OO4 [ARTEMISININ]			0.004 (≈ 0.0142 µM)				0.006 (≈ 0.0213 µM)						
CN(C)c1ccc(-c2cn(CCCCCCC(=O)NO)nn2)cc1	36 (≈ 109 µM)	5.35 (≈ 16.1 µM)	0.0245 (≈ 0.0739 µM)	31.2	23.9	0.765 (≈ 2.31 µM)	0.032 (≈ 0.0966 µM)					2	2
CC(/C=C/C(=O)NO)=C\[C@@H](C)C(=O)c1ccc(N(C)C)cc1 [TRICHOSTATIN]	20.5 (≈ 67.8 µM)	1.37 (≈ 4.53 µM)	0.0412 (≈ 0.136 µM)			0.095 (≈ 0.314 µM)	0.0495 (≈ 0.164 µM)						
